Test results as given in patent US20240165114A1, “TREATMENT OF DIABETIC NEPHROPATHY WITH AN sGC STIMULATOR” (Cyclerion Therapeutics, Inc., priority 2019, published 2024).

Legend:
[1] = system: adult patients with type 2 diabetes mellitus with albuminuria; experiment: Phase 2 study: change from baseline in urine albumin to creatinine ratio (UACR); format: in vivo, human; details: for Between PRL and PBO Group Geometric Mean % Change UACR from Baseline: placebo adjusted; for UACR: Mean CFB at Weeks 8 & 12, Placebo Adjusted / UACR: Mean CFB at Weeks 8 & 12, Within Group: text b231-232 says Week 12
Description: A Multicenter, Randomized, Double-blind, Placebo-controlled, Phase2 Study to Evaluate the Safety and Efficacy of IW-1973 in Patients with Type 2 Diabetes with Albuminuria Treated with Renin-Angiotensin System Inhibitors
The primary objectives of this clinical study (Clinical Trials.gov Identifier NCT03217591) were to assess the safety and tolerability and to evaluate the effect of oral IW-1973 on renal function when administered daily for approximately 12 weeks to adult patients with type 2 diabetes mellitus with albuminuria who were on a stable regimen of renin-angiotensin system inhibitors ([…] or ARBs).
The primary efficacy endpoint of this trial was the change from baseline in Urine Albumin to Creatinine Ratio (UACR) at Weeks 8 and 12. UACR was determined as the concentration of urine albumin [mg/dL] divided by the concentration of urine creatinine [g/dL]) from urinalysis. First morning void urine samples were collected. To reduce variability, the measurement of UACR was the average of 2-first morning void tests at each timepoint.
This multicenter, randomized, double-blind, placebo-controlled, parallel-group study evaluated 2 dose levels of IW-1973 compared with placebo. The study population consisted of adult patients with type 2 diabetes mellitus, albuminuria, and impaired renal function. Patients had to have been taking antihyperglycemic medications for at least 12 weeks with their regimen being stable (ie, drug and dose) for at least 28 days before the Randomization Visit. Additionally, patients had to have been on a stable regimen of angiotensin-converting enzyme inhibitor (ACEi) or an angiotensin receptor blocker (ARB), for at least 28 days before the Randomization Visit. For more details, see Inclusion Criteria below. A total of 156 patients (approximately 50 patients per arm) were stratified by baseline estimated glomerular filtration rate (eGFR) into three groups: eGFR 30 to 45, >45 to 60, and >60 to 75 mL/min/1.73 m^2) and randomized approximately 1:1:1 to total daily 20 mg IW-1973, 40 mg IW-1973, or placebo.
Treatment Period: The Treatment Period began on Day 1 at Randomization (there was no Day 0) and ended after the End of Treatment Visit on Day 87 (±3). Patients were stratified in one of three groups by baseline eGFR (ie, eGFR 30 to 45, >45 to 60, and >60 to 75 mL/min/1.73 m2) and randomized in an approximate1:1:1 ratio to receive 20 mg IW-1973, 40 mg IW-1973, or placebo for approximately 12 weeks.
Dosing on Days 1 to 7 (±1) was BID (twice daily), morning and evening; dosing on Day 8 (±1) and onward was QD (once daily), 2 tablets in the morning. At the Randomization Visit on Day 1, patients received their morning dose of study drug in the clinic and underwent safety, efficacy, and pharmacokinetic (PK) assessments, including blood and urine collections at prespecified times. Patients stayed in the clinic at least 6 hours postdose and were able to leave the clinic at the Investigator's discretion following all study procedures. At the Week 1 Visit on Day 8 (±1), patients returned to the clinic and received their first QD dose of study drug in the clinic. Patients underwent safety, efficacy, and PK assessments, including blood and urine collections at prespecified times. Patients stayed in the clinic at least 6 hours postdose and were able to leave the clinic at the Investigator's discretion following all study procedures. At the Week 4 (Day 29±3), Week 8 (Day 57±3), and End of Treatment (Day 87±3) Visits, patients returned to the clinic for study drug administration; safety, efficacy, and PK assessments; and study drug supply, if applicable.
One week at 10 mg BID followed by 20 mg QD for the remainder of the trial, i.e., a 20 mg total daily dosage; or
One week at 20 mg BID, followed by 40 mg QD for the remainder of the trial, i.e., a 40 mg total daily dosage.

[2] = Plasma IW-1973 concentrations / population PK in the Phase 2 study; format: in vivo, human
Method: Plasma IW-1973 concentrations were measured for pharmacokinetic determinations.
The population PK approach based on sparse PK data was used to determine exposure (AUC) and oral clearance (CL/F) of IW-1973. Influence of patient demographics (eg, age, race) on exposure was evaluated. In addition, exposure-effect (such as hemodynamic, exploratory biomarkers, efficacy, and safety parameters) relationships were explored. Effects of concomitant medications on IW-1973 PK was also evaluated.
Praliciguat concentrations were measured using a validated liquid chromatography tandem mass spectrometry method, as previously described (Hanrahan J P, et al. “A Randomized, Placebo-Controlled, Multiple-Ascending-Dose Study to Assess the Safety, Tolerability, Pharmacokinetics, and Pharmacodynamics of the Soluble Guanylate Cyclase Stimulator Praliciguat in Healthy Subjects” Clin Pharmacol Drug Dev. 2019, 8(5):564-575). Population PK analysis was performed using NONMEM 7.4 (Icon Development Solutions, Ellicott City, MD) to update an existing model established with data from three Phase 1 studies in healthy subjects and two phase 2a studies in patients with stable type 2 diabetes mellitus (T2D) and hypertension. The influence of patient demographics, renal function and concomitant medications on exposure were evaluated, and estimates of exposure (AUC) and oral clearance (CL/F) were determined.

[3] = patient concomitantly taking a strong CYP3A inhibitor; cited from earlier work
[4] = ITT, Week 12, PRL 20 mg total daily
[5] = ITT, Week 12, PRL 40 mg total daily
[6] = ITT, Weeks 8 & 12, PRL 20 mg total daily

- plasma exposure versus dose ([2]; 20 mg and 40 mg total daily oral dose): dose-proportional exposure
- time to steady state of plasma concentrations ([2]; daily oral dosing): ≤ 4 weeks
- route of elimination (renal excretion) ([2]; metabolized in the liver): negligible renal excretion
SMILES: OC(CNc1nc(-c2cc(-c3ccon3)n(Cc3ccccc3F)n2)ncc1F)(C(F)(F)F)C(F)(F)F [Compound I, praliciguat]
- Within Group Geometric Mean % Change UACR from Baseline [1, 4]: −35.2%
- Between PRL and PBO Group Geometric Mean % Change UACR from Baseline [1, 4]: −23.9%
- Within Group Geometric Mean % Change UACR from Baseline [1, 5]: −26.4%
- Between PRL and PBO Group Geometric Mean % Change UACR from Baseline [1, 5]: −13.6%
- Within Group Geometric Mean % Change UACR from Baseline ([1]; ITT, Week 12, PRL Combined): −30.9%
- Between PRL and PBO Group Geometric Mean % Change UACR from Baseline ([1]; ITT, Week 12, PRL Combined): −18.9%
- Within Group Geometric Mean % Change UACR from Baseline [1, 6]: −28.4%
- Between PRL and PBO Group Geometric Mean % Change UACR from Baseline [1, 6]: −16.0%
- Within Group Geometric Mean % Change UACR from Baseline ([1]; ITT, Weeks 8 & 12, PRL 40 mg total daily): −27.3%
- Within Group Geometric Mean % Change UACR from Baseline ([1]; ITT, Weeks 8 & 12, PRL Combined (20 and 40 mg)): −27.8%
- placebo-adjusted reduction (mean percent decrease) from baseline in UACR ([1]; ITT, combined praliciguat groups, Weeks 8 and 12): 15%
- reduction from baseline in UACR ([1]; ITT, combined praliciguat groups, over 12 weeks (weeks 8 and 12)): 28%
- UACR Mean % CFB at Weeks 8 & 12, Placebo Adjusted ([1]; mITT Population, PRL 20 mg): −14.8%
- UACR Mean % CFB at Weeks 8 & 12, Within Group ([1]; mITT Population, PRL 20 mg): −18.4%
- UACR: Mean CFB at Weeks 8 & 12, Placebo Adjusted ([1]; mITT Population, PRL 20 mg): −21.5%
- UACR: Mean CFB at Weeks 8 & 12, Within Group ([1]; mITT Population, PRL 20 mg): −24.7%
- UACR Mean % CFB at Weeks 8 & 12, Placebo Adjusted ([1]; mITT Population, PRL 40 mg): −25.1%
- UACR Mean % CFB at Weeks 8 & 12, Within Group ([1]; mITT Population, PRL 40 mg): −28.3%
- UACR: Mean CFB at Weeks 8 & 12, Placebo Adjusted ([1]; mITT Population, PRL 40 mg): −24.2%
- UACR: Mean CFB at Weeks 8 & 12, Within Group ([1]; mITT Population, PRL 40 mg): −27.4%
- UACR Mean % CFB at Weeks 8 & 12, Placebo Adjusted ([1]; mITT Population, PRL Combined): −20.1%
- UACR Mean % CFB at Weeks 8 & 12, Within Group ([1]; mITT Population, PRL Combined): −23.5%
- UACR: Mean CFB at Weeks 8 & 12, Placebo Adjusted ([1]; mITT Population, PRL Combined): −22.9%
- UACR: Mean CFB at Weeks 8 & 12, Within Group ([1]; mITT Population, PRL Combined): −26.1%
- placebo-adjusted mean percent decrease in UACR ([1]; mITT Population, combined praliciguat treatment groups, Week 12): 23%
- placebo-adjusted mean percent decrease from baseline in UACR ([1]; mITT Population, combined praliciguat treatment groups, Weeks 8 and 12): 20%
- placebo-corrected mean reduction from baseline in UACR ([1]; mITT, participants with eGFR 30-45 mL/min/1.73 m^2 at baseline, 12-week treatment): 30-40%
- AUC with concomitant strong CYP3A inhibitor versus without [3]: doubled
- T1/2 with concomitant strong CYP3A inhibitor versus without [3]: doubled
